According to ChEMBL document CHEMBL1157037, “Synthesis and in vitro antiproliferative activities of quinoline derivatives” (Eur J Med Chem, 2010):

Columns and labels:
Format in all cases: functional, cell-based
PA-1 = assay: Antiproliferative activity against human PA1 cells after 48 hrs by resazurin reduction assay; settings: PA-1, 48 h
MCF7 = assay: Antiproliferative activity against human MCF7 cells after 48 hrs by resazurin reduction assay; settings: MCF7, 48 h
[1] = Antiproliferative activity against human fibroblast cells after 48 hrs by resazurin reduction assay

| Structure (SMILES) | IC50 (PA-1) | IC50 (MCF7) | IC50 [1] |
| --- | --- | --- | --- |
| COc1ccc2ccc(-c3cc4ccccc4nc3OC)cc2n1 | 36 µM | > 100 µM | 54 µM |
| CCOc1ccc2ccc(-c3cc4ccccc4nc3OCC)cc2n1 | 37 µM | > 100 µM | 37 µM |
| CCOc1ccc2ccc(-c3cc4ccc(-c5cc6ccccc6nc5OCC)cc4nc3OCC)cc2n1 | 50 µM | > 100 µM | > 100 µM |
